Read-outs that look alike come from different tables or passages of the source.
What was measured:
[1] = Human liver microsomes (HLMs) intrinsic clearance assay; type: in vitro ADME
Description: Human liver microsomes (HLMs) were obtained from Corning (UltraPool 150 donors) at a concentration of 20 mg/mL protein. HLMs were stored at −80° C. until use and prior to use, thawed in a 37° C. water bath and then stored on wet ice. DMSO and NADPH were sourced from Solarbio S&T Co Ltd.
2 mL of 10 mM DMSO stock solutions of test compound were added to 198 mL acetonitrile to produce […] concentration. 1325 mL of 20 mg/mL HLM were added to 22260 mL of phosphate buffer to produce the HLM mixture. An 8.334 mg/mL solution of NADPH was prepared in 100 mmol/L pH 7.4 phosphate buffer.
222.5 mL of the HLM mixture and 25 mL of the 10 mM NADPH were added into the incubation plates (1 mL 96 well deep well plate from Thermo). The mixture was vortexed for 10 seconds at 1000 rpm. The incubation plate was pre-warmed in a water bath at 37° C. for 8 minutes. 2.5 mL of the […] stocks of test compound was added to initiate the reaction. The mix was vortexed for 12 seconds at 1000 rpm and incubated at 37° C. The incubation mixture (250 mL) contained 1 mg/mL HLM, 1 mmol/L NADPH and […].
The reaction was quenched by transferring 20 mL of the incubation mixture at 0.5, 5, 10, 15, 20 and 30 minutes into the quenching plate containing 100 mL of cold stop solution (acetonitrile containing internal standards). The plate was vortexed at 800 rpm for 2 minutes.
The quenching plates were centrifuged for 20 minutes at 4000 rpm and 4° C. 40 mL of the supernatant was transferred into a 96-well analysis plate containing 160 mL of water. The analysis plate was shaken at 1000 rpm for 2 minutes and the samples analysed by LC-MS/MS.
Peak areas were determined from extracted ion chromatograms. Percent parent remaining was calculated from peak area of test compound. The slope value, k, was determined by linear regression of the natural logarithm of percent parent remaining versus incubation time. The in vitro half-life (t1/2) was determined from the slope value by the equation: […]
Conversion of the in vitro half-life (min) into in vitro CLint (mL/min/mg proteins) was completed using the equation: […]

[2] = Human hepatocyte intrinsic clearance assay; type: in vitro ADME; conditions: human hepatocytes
Description: Human hepatocytes (LiverPool™ 10-Donor Human hepatocytes (Mixed Gender, PEG-free, Product No. S01205, 5 million cells per vial) were obtained from BioreclamationIVT. DMSO was sourced from Solarbio S&T Co Ltd. Leibovitz's L-15 Medium, Williams' Medium E, GlutaMAX™-1 (100×), HEPES, DPBS (10×) and Human Recombinant Insulin Solution were purchased from Gibco. Isotonic Percoll Solution was purchased from GE Healthcare. Fetal Bovine Serum (FBS) was purchased from Corning.
10 mM dexamethasone stock solution was prepared by dissolving 3.9 mg dexamethasone in 1 mL of DMSO. An Isotonic Percoll Solution was prepared by dilution of Percoll with DPBS (10×). 15 mL of Isotonic Percoll Solution (90% Percoll/10% DPBS) was added to 31.25 mL William's E medium containing 500 mL of GlutaMAX™-1 (100×), 750 mL of 1M HEPES, 2.5 mL of 5% FBS, 50 mL of 4 mg/mL Human Recombinant Insulin Solution and 5 mL of the 10 mM dexamethasone stock.
2 mL of 10 mM DMSO stock solutions of test compound were added to 198 mL acetonitrile to produce 100 mmol/L concentration.
The human hepatocyte vial was thawed at 37° C. in a waterbath. Once thawed, contents were poured into a 50 mL conical tube and centrifuged at 100 g for 10 minutes. The thawing medium was poured out and 4 mL L-15 medium was added. The tube was gently shaken to resuspend the hepatocytes and cells were counted with an appropriate cell counter. 247.5 mL of the hepatocyte suspension was transferred into each well of the plate and pre-warmed at 600 rpm and 50° C. to enable the temperature to rise to 37° C.
2.5 mL of the […] test compound solution was added to initiate the reaction (final concentration […]) and incubated at 37° C. with shaking at 900 rpm. At 0.5, 5, 15, 30, 45, 60, 80, 100 and 120 minutes, 20 mL was taken into a quenching solution of acetonitrile containing internal standards. The mix was vortexed at 800 rpm for 2 minutes followed by centrifugation for 20 minutes at 4000 rpm at 4° C. 40 mL of supernatant was transferred into a 96 well analysis plate containing 160 mL of water in each well. The analysis plate was shaken at 100 rpm for 2 minutes prior to analysis by LC-MS/MS.
Peak areas were determined from extracted ion chromatograms. Percent parent remaining was calculated from peak area of test compound. The slope value, k, was determined by linear regression of the natural logarithm of percent parent remaining versus incubation time.
The in vitro intrinsic clearance (in vitro CLint in mL/min/10^6 cells) was determined from the slope value using the following equation: […]
where V is the incubation volume (0.25 mL) and N is the number of hepatocytes per well (0.25×10^6 cells).

HEL cells = test: Proliferation assay, HEL control cell line (CellTiter-Glo, 7 days); type: cell-based, human
Description: (§1) The anti-proliferative effect of compounds was tested in human leukaemia cell lines. The cell lines […] and MV4; 11 each harbor an MLL translocation expressing the MLL fusion proteins MLL-AF9 and MLL-AF4, respectively. Each also express the wildtype protein from the second allele. OCI-AML3 cells carrying the NPM1c gene mutation were also tested.
(§2) MOLM-13 and HEL cells were cultured in RPMI 1640 (Gibco) supplemented with 10% FBS (Gibco) and 1% Pen/Strep (Gibco). MV4; 11 cells were cultured in IMDM (Gibco) supplemented with 10% FBS (Gibco) and 1% Pen/Strep (Gibco). OCI-AML3 cells were cultured in MEMa (Gibco) supplemented with 20% FBS (Gibco) and 1% Pen/Strep (Gibco).
(§3) To assess proliferative effects, 125 MOLM-13 cells, 300 MV4; 11 cells, 75 OCI-AML3 cells, and 200 HEL cells were seeded in 40 μL media per well in 384-well ViewPlates (Perkin Elmer, 6007480). Cell seeding numbers were chosen based on growth curves to ensure linear growth throughout the experiments. Test compounds were added at 3.16-fold serial dilutions in DMSO from […] and DMSO content was normalized to 0.1%. Cells were incubated for 7 days at 37° C. and 5% CO2. A day 0 plate was seeded for each cell line and used as a standard control.
(§4) To measure cell viability, CellTiter-Glo 2.0 (Promega, G9242) luminescent growth indicator was used. 10 μL CellTiter-Glo reagent was added per well. Plates were placed on a plate shaker for 2 minutes in the dark and left to incubate off the shaker for another 8 minutes in the dark, for a total of 10 minutes. Plates were read using an EnVision plate reader (Perkin Elmer) using the Luminescence aperture and a measurement time of 0.1 second.
(§5) Data were analyzed in Genedata Screener®. IC50 values were determined by plotting % inhibition versus log compound concentration and using a one site dose response model. Raw data signals were normalized using 0.1% DMSO media only as background control, 0.1% DMSO with cells no compound as 100% viability (maximum signal), and day 0 0.1% DM with cells no compound as 0% viability (minimum signal).

Menin protein = Menin protein (Homo sapiens, UniProt O00255, DEL460-519); test: Menin/MLL fluorescence polarization (FP) assay; type: binding; conditions: Menin 2 nM, cRho110-Ahx-MBM1/MBM2 peptide 1 nM
Sequence of Menin protein (O00255 with tags, fused parts or gaps DEL460-519): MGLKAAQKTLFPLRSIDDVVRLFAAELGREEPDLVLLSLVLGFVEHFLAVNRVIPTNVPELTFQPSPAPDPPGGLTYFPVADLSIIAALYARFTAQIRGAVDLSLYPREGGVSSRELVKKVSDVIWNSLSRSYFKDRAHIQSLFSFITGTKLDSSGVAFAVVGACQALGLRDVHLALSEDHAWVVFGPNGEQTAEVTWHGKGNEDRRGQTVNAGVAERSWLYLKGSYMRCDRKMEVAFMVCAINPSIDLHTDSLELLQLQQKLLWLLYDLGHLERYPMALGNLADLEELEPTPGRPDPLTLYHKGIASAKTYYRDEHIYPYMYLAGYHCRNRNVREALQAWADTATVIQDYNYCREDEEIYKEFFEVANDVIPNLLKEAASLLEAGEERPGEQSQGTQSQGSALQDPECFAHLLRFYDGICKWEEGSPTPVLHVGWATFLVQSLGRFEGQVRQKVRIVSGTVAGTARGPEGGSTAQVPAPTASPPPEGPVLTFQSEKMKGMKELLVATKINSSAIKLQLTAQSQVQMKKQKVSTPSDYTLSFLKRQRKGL
Description: Compounds were tested in a biochemical binding assay using Menin protein at 2 nM (N6his-tev-Menin_4i80, PB-20-1459) and the substrate cRho110-Ahx-MBM1/MBM2 peptide (UbiQ, UbiQ-Q20201030; cRh110-Ahx-[…]-QRVPALLLPPG-NH2) at 1 nM.
384 Low volume black plates (Corning #4514) were used. 5 μL/well compound or 3% DMSO was added at 10-fold serial dilutions in DMSO from 10 μM. 5 μL/well cRho110-Ahx-MBM1/MBM2 peptide or binding buffer (50 mM Tris pH 7.5, 50 mM NaCl, 1 mM TCEP, 0.01% BGG, 0.01% Brij-35) was added to all wells. 5 μL/well Menin protein or binding buffer (50 mM Tris pH 7.5, 50 mM NaCl, 1 mM TCEP, 0.01% BGG, 0.01% Brij-35) was added to all wells. Plates were read on an EnVision plate reader (Perkin Elmer) with excitation at 480 nm and emission at 535 nm P+S, and measured every 5 minutes for 180 minutes.
Data were analyzed in Genedata Screener®. IC50 values were determined by plotting % inhibition versus log compound concentration and using a one site dose response model. Raw data signals were normalized using 1% DMSO no Menin as 100% inhibitor control and 1% DMSO with Menin and no inhibitor as 0% inhibitor control.

MOLM-13 cells = test: Proliferation assay, MOLM-13 (CellTiter-Glo, 7 days); type: cell-based, human
Description: as §1, §2, §3, §4, §5

hERG = hERG (Homo sapiens (Human), UniProt Q12809); test: hERG assay 1 (standard), SyncroPatch 384PE; type: cell-based; conditions: CHO cells, room temperature, up to 40 uM
Sequence of hERG (Q12809 whole entry): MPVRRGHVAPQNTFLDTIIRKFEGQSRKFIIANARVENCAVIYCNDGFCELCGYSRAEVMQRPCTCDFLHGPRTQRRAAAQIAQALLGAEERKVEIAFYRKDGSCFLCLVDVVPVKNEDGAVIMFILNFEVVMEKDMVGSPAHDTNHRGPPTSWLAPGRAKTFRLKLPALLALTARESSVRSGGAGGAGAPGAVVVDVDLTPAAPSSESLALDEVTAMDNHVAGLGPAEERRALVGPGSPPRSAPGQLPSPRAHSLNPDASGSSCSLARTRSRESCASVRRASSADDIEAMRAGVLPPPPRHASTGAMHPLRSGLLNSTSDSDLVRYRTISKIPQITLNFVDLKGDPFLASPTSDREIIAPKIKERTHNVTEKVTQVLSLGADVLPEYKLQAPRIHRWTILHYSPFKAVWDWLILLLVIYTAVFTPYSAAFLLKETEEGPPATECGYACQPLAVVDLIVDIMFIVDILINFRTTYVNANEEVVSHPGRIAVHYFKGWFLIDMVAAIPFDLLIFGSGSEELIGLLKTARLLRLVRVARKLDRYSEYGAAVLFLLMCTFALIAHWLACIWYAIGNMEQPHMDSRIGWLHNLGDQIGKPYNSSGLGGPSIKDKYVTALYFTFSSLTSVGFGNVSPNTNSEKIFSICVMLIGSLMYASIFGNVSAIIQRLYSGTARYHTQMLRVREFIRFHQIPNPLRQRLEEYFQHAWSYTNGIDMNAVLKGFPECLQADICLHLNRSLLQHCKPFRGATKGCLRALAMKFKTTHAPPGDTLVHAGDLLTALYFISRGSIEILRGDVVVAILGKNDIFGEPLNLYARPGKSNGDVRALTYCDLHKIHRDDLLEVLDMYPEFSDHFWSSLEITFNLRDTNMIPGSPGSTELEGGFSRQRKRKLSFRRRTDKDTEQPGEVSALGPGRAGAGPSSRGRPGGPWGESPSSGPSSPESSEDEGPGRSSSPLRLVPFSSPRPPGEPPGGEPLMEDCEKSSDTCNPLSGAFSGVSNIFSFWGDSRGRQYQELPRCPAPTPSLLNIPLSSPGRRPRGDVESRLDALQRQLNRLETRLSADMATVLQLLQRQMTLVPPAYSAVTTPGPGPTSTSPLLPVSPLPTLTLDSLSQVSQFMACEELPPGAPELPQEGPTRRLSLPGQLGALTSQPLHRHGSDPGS
Description: Experiments were performed on the SyncroPatch 384PE (Nanion Technologies) high throughput patch clamp platform at room temperature and used medium resistance chips with 4 patch holes per site. hERG-expressing Chinese hamster ovary K1 (CHO) cell line was used in assay-ready format and kept in liquid nitrogen until use. 2 vials of cells (10×10^6 cells per vial) were thawed and added to 20 ml Hepes-buffered saline solution (HBSS). HBSS comprised 140 mM NaCl, 4 mM KCl, 10 mM HEPES and 5 mM Glucose (pH 7.4). The internal patch clamp solution was KF 120 mM, KCl 20 mM, HEPES 10 mM, EGTA 10 mM, and 25 μM Escin (pH 7.2). After the initial sealing process was complete, a seal enhancer solution comprising HBSS supplemented with 10 mM CaCl2 and 1 mM MgCl2 was applied to cells. The external solution was then exchanged (4 times) for external patch clamp solution comprising NaCl 80 mM, KCl 4 mM, HEPES 10 mM, CaCl2 2 mM, MgCl2 1 mM, glucose 5 mM, and NMDG 60 mM (pH7.4). All compounds were dispensed from initial 10 mM DMSO stocks. An industry standard +60/−40 mV voltage protocol was applied every 15 seconds. Compounds were tested in a 6-point cumulative assay (final DMSO concentration 0.33%), with a concentration range of 139 nM to 40 uM. Data were analyzed in Genedata Screener®. IC50 values were determined by plotting % inhibition versus log compound concentration and using a one site dose response model. Only wells that passed acceptance criteria for this platform were used in this analysis (30 MegaOhm seal resistance, Z prime >0.4 and current size >0.2 nA).

[3] = human, microsomes, 1 µM, pH 7.4

Row | SMILES | IC50 (Menin protein) [µM] | HLM CLint [1, 3] [µL/min/mg] | microsomal CLint at 1 µM ([1]; human, microsomes, pH 7.4, HLM CLint) [µL/min/mg] | IC50 (MOLM-13 cells; Homo sapiens, MOLM-13, 168 h) [µM] | HLM CLint ([1]; 1 mg/mL HLM, NADPH) [µL/min/mg] | HH CLint [2] [μl/min/1E6] | IC50 (HEL cells) [µM] | IC50 (MOLM-13 cells) [µM] | IC50 (hERG) [µM] | IC50 (HEL cells; Homo sapiens, HEL, 168 h) [µM]
1 | CCN(C(=O)c1cc(F)ccc1-n1c(C)c(C(=O)[C@@H]2CCN(C(=O)[C@@H]3CCC4(CC4)N3)[C@@H](C)C2)c2ccncc21)C(C)C (single isomer, unassigned) [Example 52-3, N-Ethyl-5-fluoro-N-isopropyl-2-(2-methyl-3-((2R*,4S*)-2-methyl-1-((S)-4-azaspiro[2.4]heptane-5-carbonyl)piperidine-4-carbonyl)-1H-pyrrolo[2,3-c]pyridin-1-yl)benzamide] | 5.95 |  |  |  | 210 | 5.7 | > 10 | 1.47 |  | 
2 | CCN(C(=O)c1cc(F)ccc1-n1c(C)c(C(=O)[C@@H]2CCN(C(=O)[C@@H]3CCC4(CC4)N3)[C@@H](C)C2)c2ccncc21)C(C)C (single isomer, unassigned) [Example 52-4, N-Ethyl-5-fluoro-N-isopropyl-2-(2-methyl-3-((2R*,4S*)-2-methyl-1-((S)-4-azaspiro[2.4]heptane-5-carbonyl)piperidine-4-carbonyl)-1H-pyrrolo[2,3-c]pyridin-1-yl)benzamide] | 2.47 |  |  |  | >300 | 7.9 | > 10 | 1.09 |  | 
3 | [2H]C([2H])([2H])C([2H])(N(C(=O)c1cc(F)ccc1-n1c(C)c(C(=O)C2CCN(C(=O)[C@@H]3CCC(C)(C)N3)CC2)c2ccncc21)C([2H])(C([2H])([2H])[2H])C([2H])([2H])[2H])C([2H])([2H])[2H] [Example 59, (S)-2-(3-(1-(5,5-Dimethylpyrrolidine-2-carbonyl)piperidine-4-carbonyl)-2-methyl-1H-pyrrolo[2,3-c]pyridin-1-yl)-5-fluoro-N,N-bis(propan-2-yl-d7)benzamide] | 0.102 |  | 59 | 0.094 |  |  |  |  | > 40 | > 10

Further lines, with some results ahead:

Row | IC50 (Menin protein) [µM] | HLM CLint [1, 3] [µL/min/mg] | microsomal CLint at 1 µM ([1]; human, microsomes, pH 7.4, HLM CLint) [µL/min/mg] | IC50 (MOLM-13 cells; Homo sapiens, MOLM-13, 168 h) [µM] | SMILES | HLM CLint ([1]; 1 mg/mL HLM, NADPH) [µL/min/mg] | HH CLint [2] [μl/min/1E6] | IC50 (HEL cells) [µM] | IC50 (MOLM-13 cells) [µM] | IC50 (hERG) [µM] | IC50 (HEL cells; Homo sapiens, HEL, 168 h) [µM]
4 | 7.8 | 77 |  |  | Cc1c(C(=O)[C@@H]2CCN(C(=O)[C@H]3NC[C@@H]4C[C@@H]43)[C@@H](C)C2)c2ccncc2n1-c1ccc(F)cc1C(=O)N(CC(F)(F)F)C(C)C (single isomer, unassigned) [Example 53-2, 2-(3-((2R*,4S*)-1-((1S,2S,5R)-3-Azabicyclo[3.1.0]hexane-2-carbonyl)-2-methylpiperidine-4-carbonyl)-2-methyl-1H-pyrrolo[2,3-c]pyridin-1-yl)-5-fluoro-N-isopropyl-N-(2,2,2-trifluoroethyl)benzamide] |  |  | > 10 | 1.3 |  | 
5 | > 10 | 95 |  |  | Cc1c(C(=O)C2CCN(C(=O)[C@H]3NC[C@@H]4C[C@@H]43)CC2)c2ccncc2n1-c1ccc(F)cc1C(=O)N(C(C)C)[C@H](C)C(F)(F)F (single isomer, unassigned) [Example 57-2] |  |  | > 10 | > 10 | > 40 | 
